Source: PMC4661883, “Cell-Penetrating Ability of Peptide Hormones: Key Role of Glycosaminoglycans Clustering” (International Journal of Molecular Sciences, 2015)

Assays:
CHO K1 cells = assay: Cellular uptake of fluorescently labelled peptides by flow cytometry, CHO K1 cells; type: cell-based, Chinese hamster; conditions: 1 µM fluorescently-labelled (FITC-Ahx N-terminal) peptide, 1 h at 37 °C, 1% FBS Ham's F12, heparin wash and trypsin, at least 3 experiments
Procedure: Chinese hamster ovary cells K1 (CHO K1; obtained from ATCC, Manassas, VA, USA) and xylosyltransferase deficient cells [18] (CHO pgs-A-745; obtained from ATCC) were maintained in Ham’s F12 medium supplemented with 10% foetal bovine serum (FBS), 2 mM L-glutamine and antibiotic (10,000 UI/mL penicillin, and 10,000 UI/mL streptomycin). Cells were maintained as a monolayer at 37 °C in a humidified atmosphere of 5% CO2 and 95% air and passaged by trypsinization when the cells reached 70%–80% confluence.

CHO pgs-A-745 cells = assay: Cellular uptake of fluorescently labelled peptides by flow cytometry, GAGs-deficient CHO pgs-A-745 cells; type: cell-based, Chinese hamster; conditions: 1 µM fluorescently labelled peptide, 1 h at 37 °C
Procedure: Figure 1 Cellular uptake of cationic peptide hormones and TAT peptide. […] Data represent the relative mean fluorescence intensity (± S.E.M.) of gated cells from at least 3 individual experiments and results are expressed as a percentage of the median fluorescence for 1 μM PACAP38 in CHO K1 cells. Cells were incubated for 1 h at 37 °C in 5% CO2 with fluorescently labelled peptides, washed twice in HBSS, treated with 100 μg/mL heparin for 5 min, detached by trypsin treatment, washed by centrifugation and resuspended in ice-cold sorting buffer before flow cytometry analysis.
Chinese hamster ovary cells K1 (CHO K1; obtained from ATCC, Manassas, VA, USA) and xylosyltransferase deficient cells (CHO pgs-A-745; obtained from ATCC) were maintained in Ham’s F12 medium supplemented with 10% foetal bovine serum (FBS), 2 mM L-glutamine and antibiotic (10,000 UI/mL penicillin, and 10,000 UI/mL streptomycin). […]
For cellular uptake measurement, CHO K1 and CHO pgs-A-745 were seeded in 12-well plates at a density of 30,000 cells/well for 48 h to approximately 75% confluence. […] To confirm that the fluorescence measured by flow cytometry was not associated to non-specific binding of the FITC-peptides at the cell surface, we performed the analysis after treatment with the fluorescent quencher trypan blue. […]

[1] = Heparin affinity chromatography (HiTrap Heparin HP sepharose column, NaCl gradient); type: binding, porcine; conditions: 20 mM phosphate pH 7.4, NaCl gradient
Procedure: (A) Chromatograms of PACAP38 elution with increasing NaCl concentration on a sepharose heparin column connected to a FPLC Aktapure system.
The relative binding affinity of the peptides for sulfated GAGs was evaluated using a 1 mL HiTrap Heparin HP column packed with sepharose and immobilized heparin from porcine intestinal mucosa (GE Healthcare, Baie-d'Urfé, QC, Canada). The column was connected to a FPLC Aktapure system (GE Healthcare) and equilibrated with phosphate buffer (20 mM, pH 7.4) prior to injection. Five hundred microliters of 0.5 mg/mL peptide solutions were injected at a flow rate of 0.5 mL/min. After injection, the elution consisted of an isocratic step of 5 mL phosphate buffer (20 mM, pH 7.4) followed by a gradient from 0 to 2 M NaCl in phosphate buffer (pH 7.4). Peptide elution was monitored using absorbance at 230 nm.

[2] = Heparin clustering measured by turbidity at 400 nm, heparin-into-peptide titration; type: physicochemical; conditions: 1.25 µL aliquots of 100 µM heparin into 1 mL 50 µM peptide, 20 mM phosphate, 100 mM NaCl, pH 7.4
Procedure: Each peak corresponds to the injection of 1.25 μL of a 100 μM heparin solution (20 mM phosphate, 100 mM NaCl, pH 7.4) into a 1 mL 50 μM peptide solution (20 mM phosphate, 100 mM NaCl, pH 7.4).
The formation of macromolecular GAG-peptide clusters was monitored by measuring the light scattering at 400 nm, as previously described [27, 28], using a 100 Bio Cary UV-visible spectrophotometer (Varian, Malton, ON, Canada). Briefly, for the heparin-into-peptide titration, a 1 cm length quartz cuvette was filled with 1 mL of a 50 μM peptide solution (20 mM phosphate buffer, 100 mM·NaCl, pH 7.4) and 1.25 μL aliquots of a 100 μM heparin solution (20 mM phosphate buffer, 100 mM·NaCl, pH 7.4) were successively added. The solution was gently mixed by vortex and the turbidity at 400 nm was immediately measured. For the peptide-into-heparin titration, a 1 cm length quartz cuvette was filled with 1 mL of a 10 μM heparin solution (20 mM phosphate buffer, 100 mM·NaCl, pH 7.4) and 12.5 μL aliquots of a 200 μM peptide solution (20 mM phosphate buffer, 100 mM·NaCl, pH 7.4) were successively added. The solution was gently mixed by vortex and the turbidity at 400 nm was immediately measured. Data was expressed as solution turbidity at 400 nm as function of peptide/heparin or heparin/peptide molar ratio.

[3] = previously shown; cited from earlier work
Description: This could be related to the fact that arginine has a higher affinity for sulfated GAGs than lysine.

[4] = previously shown; cited from earlier work; remark: listed apart in the source
Description: We recently reported that upon binding to sulfated GAGs, PACAP38 undergoes a random coil-to-α-helix conformational conversion. […] Thus, we evaluated if the lower efficacy of cellular uptake of representative peptides of the secretin/glucagon/GHRH superfamily and of calcitonin could not be ascribed to the incapacity of ...

| Sequence | Cellular uptake, fold lower compared to PACAP38 (CHO K1 cells) | Extent of internalization in CHO pgs-A-745 versus CHO K1 cells (in words) (CHO pgs-A-745 cells) | Relative binding to heparin column (in words) [1] | Turbidity at 400 nm on titration of heparin into peptide (in words) [2] | NaCl concentration at which TAT is eluted from heparin column [3] | Secondary conformation of TAT upon binding to heparin [4] |
| --- | --- | --- | --- | --- | --- | --- |
| CGNLSTCMLGTYTQDFNKFHTFPQTAIGVGAP [Calcitonin] | 5- to 10 fold | rather similar | bind weakly to the heparin column | absence of turbidity | – | – |
| GRKKRRQRRRPPQ [TAT(48–60), cationic peptide derived from the HIV-1 protein TAT, the control CPP used in this study] | – | – | – | – | around 1.8 M | adopts an α-helical conformation |
